From ChEMBL document CHEMBL3232736, “Antiproliferative activities of halogenated thieno[3,2-d]pyrimidines” (Bioorg Med Chem, 2014) come the findings set out here.

Data set [1] relates to L1210. The data set can be described thus: Cytotoxicity against mouse L1210 cells assessed as reduction in cell number after 48 hrs by cell counting assay. The class given is functional, cell-based. The conditions noted are these: L1210, 48 h.
In the next data set the test system is CCRF-CEM. In words: Cytotoxicity against human CCRF-CEM cells assessed as reduction in cell number after 72 hrs by cell counting assay. The class given is functional, cell-based.
Data set [2] deals with HeLa. The data set can be described thus: Cytotoxicity against human HeLa cells assessed as reduction in cell number after 72 hrs by cell counting assay. The class given is functional, cell-based.
The target in data set [3] is PI3-kinase p110-delta/p85-alpha (Homo sapiens) (UniProt P27986+O00329). In words: Inhibition of PIK3CD/PIK3R1 (unknown origin) at 5 uM. The class given is protein-complex assay.
Data set [4] concerns the target Phosphatidylinositol 4,5-bisphosphate 3-kinase catalytic subunit gamma isoform (Homo sapiens) (UniProt P48736). In words: Inhibition of PIK3CG (unknown origin) at 5 uM.
In data set [5] the test system is L1210. The data set can be described thus: Cell cycle arrest in mouse L1210 cells at 0.32 uM after 24 to 48 hrs by propidium iodide staining-based flow cytometric analysis. The class given is functional. For orientation: In flow cytometry, cells or beads pass a laser one at a time.
A further data set relates to Escherichia coli. The data set can be described thus: Antibacterial activity against Escherichia coli ATCC 25922 assessed as growth inhibition at 100 uM after 16 to 20 hrs by microbroth dilution method. The class given is functional, organism-based. Background: Broth dilution looks for growth in wells or tubes with falling amounts of substance.
A further data set deals with Bacillus spizizenii. In words: Antibacterial activity against Bacillus subtilis ATCC 6633 assessed as growth inhibition at 100 uM after 16 to 20 hrs by microbroth dilution method. The class given is functional.
For another data set, the system named is Staphylococcus aureus. The data set can be described thus: Antibacterial activity against methicillin-resistant Staphylococcus aureus subsp. aureus ATCC 43300 assessed as growth inhibition at 100 uM after 16 to 20 hrs by microbroth dilution method. The class given is functional, organism-based.
In the next data set the test system is Enterococcus faecalis. The data set can be described thus: Antibacterial activity against vancomycin-resistant Enterococcus faecalis ATCC 51299 assessed as growth inhibition at 100 uM after 16 to 20 hrs by microbroth dilution method. The class given is functional, organism-based.
The subject of a further data set is Pseudomonas aeruginosa. The data set can be described thus: Antibacterial activity against Pseudomonas aeruginosa ATCC 27853 assessed as growth inhibition at 100 uM after 16 to 20 hrs by microbroth dilution method. The class given is functional, organism-based.
Another data set deals with Candida albicans. The data set can be described thus: Antifungal activity against Candida albicans ATCC 10231 assessed as growth inhibition after 16 to 20 hrs by microbroth dilution method. The class given is functional.
Data set [6] deals with Cryptococcus neoformans. In words: Antifungal activity against Cryptococcus neoformans JEC20 assessed as growth inhibition after 48 hrs by microbroth dilution method. To be noted: JEC20, 48 h. The class given is functional.
Data set [7] relates to Cryptococcus neoformans. In words: Antifungal activity against Cryptococcus neoformans B4546 assessed as growth inhibition after 48 hrs by microbroth dilution method. The conditions noted are these: B4546, 48 h. The class given is functional.
Data set [8] deals with L1210. In words: Induction of apoptosis in mouse L1210 cells assessed as early apoptotic cells level at 1 uM after 48 hrs by Annexin-V/7-AAD staining-based flow cytometric analysis (reference value: 2.59%). The class given is functional.
For data set [9], the target named is Hepatocyte growth factor receptor (Homo sapiens) (UniProt P08581). In words: Inhibition of MET (unknown origin) at 5 uM.
In data set [10] the target is Non-receptor tyrosine-protein kinase TYK2 (Homo sapiens) (UniProt P29597). In words: Inhibition of TYK2 (unknown origin) at 5 uM.
Data set [11] has as its system L1210. In words: Induction of apoptosis in mouse L1210 cells assessed as viable cells level at 1 uM after 48 hrs by Annexin-V/7-AAD staining-based flow cytometric analysis (reference value: 92.5%). The class given is functional.
In data set [12] the test system is L1210. The data set can be described thus: Induction of apoptosis in mouse L1210 cells assessed as necrotic cells level at 1 uM after 48 hrs by Annexin-V/7-AAD staining-based flow cytometric analysis (reference value: 3.68%). The class given is functional.
The subject of data set [13] is L1210. In words: Induction of apoptosis in mouse L1210 cells assessed as late cells level at 1 uM after 48 hrs by Annexin-V/7-AAD staining-based flow cytometric analysis (reference value: 1.25%). The class given is functional.
Data set [14] has as its target Phosphatidylinositol 4-phosphate 3-kinase C2 domain-containing subunit alpha (Homo sapiens) (UniProt O00443). The data set can be described thus: Inhibition of PIK3C2A (unknown origin) at 5 uM.
The target in data set [15] is Phosphatidylinositol 4-phosphate 3-kinase C2 domain-containing subunit beta (Homo sapiens) (UniProt O00750). The data set can be described thus: Inhibition of PIK3C2B (unknown origin) at 5 uM.
Data set [16] addresses Phosphatidylinositol 3-kinase catalytic subunit type 3 (Homo sapiens) (UniProt Q8NEB9). The data set can be described thus: Inhibition of PIK3C3 (unknown origin) at 5 uM.
In data set [17] the target is PI3-kinase p110-alpha/p85-alpha (Homo sapiens) (UniProt P27986+P42336). The data set can be described thus: Inhibition of PIK3CA/PIK3R1 (unknown origin) at 5 uM. The class given is protein-complex assay.
The next data set concerns HEL. In words: Cytotoxicity against human HEL cells assessed as reduction in cell number by cell counting assay. The class given is functional.
Another data set concerns Vero. In words: Cytotoxicity against African green monkey Vero cells assessed as reduction in cell number. The class given is cell-based. The conditions noted are these: chlorocebus sabaeus.
Data set [18] deals with HeLa. In words: Cytotoxicity against human HeLa cells assessed as reduction in cell number. The class given is functional.
Data set [19] deals with L1210. In words: Cytotoxicity against mouse L1210 cells assessed as reduction in cell viability after 48 hrs by MTT assay. The class given is functional, cell-based. The conditions noted are these: L1210, 48 h. (In general: Tetrazolium assays rely on reduction of a dye to a coloured formazan, in cell work by metabolically active cells.)
Data set [20] addresses Serine/threonine-protein kinase mTOR (Homo sapiens) (UniProt P42345). In words: Inhibition of FRAP1 (unknown origin) at 5 uM.
Data set [21] addresses Tyrosine-protein kinase JAK1 (Homo sapiens) (UniProt P23458). The data set can be described thus: Inhibition of JAK1 (unknown origin) at 5 uM.
For data set [22], the target named is Tyrosine-protein kinase JAK2 (Homo sapiens) (UniProt O60674). The data set can be described thus: Inhibition of JAK2 (unknown origin) at 5 uM.
Data set [23] shares this target. The data set can be described thus: Inhibition of JAK2 JH1/JH2 domain (unknown origin) at 5 uM.
The test system of data set [24] is Tyrosine-protein kinase JAK2 (Homo sapiens), O60674 [V617F]. The data set can be described thus: Inhibition of JAK2 JH1/JH2 domain V617F mutant (unknown origin) at 5 uM.
Data set [25] addresses Tyrosine-protein kinase JAK3 (Homo sapiens) (UniProt P52333). In words: Inhibition of JAK3 (unknown origin) at 5 uM.
The target in data set [26] is Leukocyte tyrosine kinase receptor (Homo sapiens) (UniProt P29376). The data set can be described thus: Inhibition of LTK (unknown origin) at 5 uM.
For data set [27], the target named is Serine/threonine-protein kinase D3 (Homo sapiens) (UniProt O94806). The data set can be described thus: Inhibition of PRKCN (unknown origin) at 5 uM.
Data set [28] addresses Serine/threonine-protein kinase D1 (Homo sapiens) (UniProt Q15139). The data set can be described thus: Inhibition of PRKD1 (unknown origin) at 5 uM.
In data set [29] the target is Serine/threonine-protein kinase D2 (Homo sapiens) (UniProt Q9BZL6). In words: Inhibition of PRKD2 (unknown origin) at 5 uM.
For data set [30], the target named is Proto-oncogene tyrosine-protein kinase Src (Homo sapiens) (UniProt P12931). In words: Inhibition of SRC (unknown origin) at 5 uM.
Data set [31] shares this target. In words: Inhibition of SRC N1 (unknown origin) at 5 uM.

In general, IC50 refers to the concentration needed to halve the response being measured. For orientation: inhibition means the change of the read-out against control, counted positive when it falls.

SMILES strings stand for the structures. In brackets after ≈: the same amount, converted by molar mass. Activity calls are given as the source filed them. No cut-off for these calls is given here.

Chain of Tyrosine-protein kinase JAK2 (Homo sapiens) (O60674 whole entry, the tested form may be a part): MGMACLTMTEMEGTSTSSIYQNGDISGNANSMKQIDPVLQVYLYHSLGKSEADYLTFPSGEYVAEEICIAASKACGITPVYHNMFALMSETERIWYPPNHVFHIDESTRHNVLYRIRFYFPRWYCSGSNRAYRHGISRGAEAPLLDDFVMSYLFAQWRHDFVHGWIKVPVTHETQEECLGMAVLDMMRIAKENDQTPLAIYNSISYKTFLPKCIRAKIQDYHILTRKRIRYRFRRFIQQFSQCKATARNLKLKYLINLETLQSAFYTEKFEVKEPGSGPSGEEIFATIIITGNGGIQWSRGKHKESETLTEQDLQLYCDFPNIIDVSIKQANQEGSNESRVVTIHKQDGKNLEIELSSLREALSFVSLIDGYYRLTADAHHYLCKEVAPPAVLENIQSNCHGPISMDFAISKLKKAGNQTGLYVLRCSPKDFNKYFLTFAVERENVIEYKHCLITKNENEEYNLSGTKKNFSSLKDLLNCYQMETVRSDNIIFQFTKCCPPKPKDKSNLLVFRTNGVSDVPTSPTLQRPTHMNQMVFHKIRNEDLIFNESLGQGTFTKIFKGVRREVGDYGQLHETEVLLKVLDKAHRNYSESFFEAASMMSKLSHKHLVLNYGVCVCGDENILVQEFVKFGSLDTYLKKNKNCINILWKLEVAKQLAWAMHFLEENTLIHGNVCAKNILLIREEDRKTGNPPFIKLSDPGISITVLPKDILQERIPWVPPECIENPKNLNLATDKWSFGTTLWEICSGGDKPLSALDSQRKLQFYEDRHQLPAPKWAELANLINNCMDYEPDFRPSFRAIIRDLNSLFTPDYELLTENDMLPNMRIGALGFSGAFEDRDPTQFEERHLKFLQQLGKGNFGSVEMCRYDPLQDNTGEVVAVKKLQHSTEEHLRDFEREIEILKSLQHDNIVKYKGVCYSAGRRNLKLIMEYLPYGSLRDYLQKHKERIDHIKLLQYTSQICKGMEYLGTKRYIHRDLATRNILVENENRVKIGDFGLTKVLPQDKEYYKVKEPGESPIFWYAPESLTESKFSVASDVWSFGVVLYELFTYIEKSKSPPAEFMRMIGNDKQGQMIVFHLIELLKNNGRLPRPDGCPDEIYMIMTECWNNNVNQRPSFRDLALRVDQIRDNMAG
Chain of Proto-oncogene tyrosine-protein kinase Src (Homo sapiens) (P12931 2-536 limits assumed): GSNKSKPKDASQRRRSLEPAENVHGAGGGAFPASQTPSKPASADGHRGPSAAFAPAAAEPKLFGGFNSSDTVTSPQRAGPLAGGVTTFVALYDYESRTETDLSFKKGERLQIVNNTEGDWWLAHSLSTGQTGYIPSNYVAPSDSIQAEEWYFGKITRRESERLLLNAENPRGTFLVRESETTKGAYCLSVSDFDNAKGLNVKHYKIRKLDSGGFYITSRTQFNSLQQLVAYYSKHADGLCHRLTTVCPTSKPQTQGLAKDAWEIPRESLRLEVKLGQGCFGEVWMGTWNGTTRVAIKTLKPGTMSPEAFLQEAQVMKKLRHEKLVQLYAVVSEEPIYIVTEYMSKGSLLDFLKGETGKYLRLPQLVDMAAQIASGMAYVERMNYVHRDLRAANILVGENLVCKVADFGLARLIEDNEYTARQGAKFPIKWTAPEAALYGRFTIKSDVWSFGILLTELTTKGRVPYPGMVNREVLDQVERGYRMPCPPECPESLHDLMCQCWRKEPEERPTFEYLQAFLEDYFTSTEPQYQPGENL
Chain of Tyrosine-protein kinase JAK3 (Homo sapiens) (P52333 whole entry): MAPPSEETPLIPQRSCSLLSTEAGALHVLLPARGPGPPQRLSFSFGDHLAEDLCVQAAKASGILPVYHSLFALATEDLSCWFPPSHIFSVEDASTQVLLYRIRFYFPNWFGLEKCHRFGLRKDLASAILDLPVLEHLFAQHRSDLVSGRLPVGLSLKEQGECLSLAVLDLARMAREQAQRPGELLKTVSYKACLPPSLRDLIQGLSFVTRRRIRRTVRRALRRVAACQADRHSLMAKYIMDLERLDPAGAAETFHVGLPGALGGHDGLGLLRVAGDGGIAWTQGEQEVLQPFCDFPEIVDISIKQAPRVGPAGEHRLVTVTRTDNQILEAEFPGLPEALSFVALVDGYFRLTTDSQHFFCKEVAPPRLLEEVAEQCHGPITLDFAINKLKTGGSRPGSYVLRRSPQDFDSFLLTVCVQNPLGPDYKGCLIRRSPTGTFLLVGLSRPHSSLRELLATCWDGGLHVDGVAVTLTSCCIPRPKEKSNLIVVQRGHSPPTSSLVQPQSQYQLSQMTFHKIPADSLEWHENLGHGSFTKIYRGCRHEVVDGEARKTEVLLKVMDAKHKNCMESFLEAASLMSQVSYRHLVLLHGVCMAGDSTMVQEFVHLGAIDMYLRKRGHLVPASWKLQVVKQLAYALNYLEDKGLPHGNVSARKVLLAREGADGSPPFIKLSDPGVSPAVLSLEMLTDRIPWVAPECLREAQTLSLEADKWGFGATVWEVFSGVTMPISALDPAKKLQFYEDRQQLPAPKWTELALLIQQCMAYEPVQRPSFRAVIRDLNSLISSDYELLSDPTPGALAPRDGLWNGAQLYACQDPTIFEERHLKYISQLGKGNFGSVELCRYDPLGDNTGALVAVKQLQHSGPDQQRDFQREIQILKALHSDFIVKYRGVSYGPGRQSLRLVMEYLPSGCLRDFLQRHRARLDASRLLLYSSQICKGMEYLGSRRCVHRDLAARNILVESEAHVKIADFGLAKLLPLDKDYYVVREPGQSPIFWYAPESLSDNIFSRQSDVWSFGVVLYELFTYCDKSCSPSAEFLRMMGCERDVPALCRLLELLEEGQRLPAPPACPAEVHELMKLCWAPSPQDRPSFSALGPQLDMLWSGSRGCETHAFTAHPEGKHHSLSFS
Chain of Phosphatidylinositol 4-phosphate 3-kinase C2 domain-containing subunit beta (Homo sapiens) (O00750 whole entry, the tested form may be a part): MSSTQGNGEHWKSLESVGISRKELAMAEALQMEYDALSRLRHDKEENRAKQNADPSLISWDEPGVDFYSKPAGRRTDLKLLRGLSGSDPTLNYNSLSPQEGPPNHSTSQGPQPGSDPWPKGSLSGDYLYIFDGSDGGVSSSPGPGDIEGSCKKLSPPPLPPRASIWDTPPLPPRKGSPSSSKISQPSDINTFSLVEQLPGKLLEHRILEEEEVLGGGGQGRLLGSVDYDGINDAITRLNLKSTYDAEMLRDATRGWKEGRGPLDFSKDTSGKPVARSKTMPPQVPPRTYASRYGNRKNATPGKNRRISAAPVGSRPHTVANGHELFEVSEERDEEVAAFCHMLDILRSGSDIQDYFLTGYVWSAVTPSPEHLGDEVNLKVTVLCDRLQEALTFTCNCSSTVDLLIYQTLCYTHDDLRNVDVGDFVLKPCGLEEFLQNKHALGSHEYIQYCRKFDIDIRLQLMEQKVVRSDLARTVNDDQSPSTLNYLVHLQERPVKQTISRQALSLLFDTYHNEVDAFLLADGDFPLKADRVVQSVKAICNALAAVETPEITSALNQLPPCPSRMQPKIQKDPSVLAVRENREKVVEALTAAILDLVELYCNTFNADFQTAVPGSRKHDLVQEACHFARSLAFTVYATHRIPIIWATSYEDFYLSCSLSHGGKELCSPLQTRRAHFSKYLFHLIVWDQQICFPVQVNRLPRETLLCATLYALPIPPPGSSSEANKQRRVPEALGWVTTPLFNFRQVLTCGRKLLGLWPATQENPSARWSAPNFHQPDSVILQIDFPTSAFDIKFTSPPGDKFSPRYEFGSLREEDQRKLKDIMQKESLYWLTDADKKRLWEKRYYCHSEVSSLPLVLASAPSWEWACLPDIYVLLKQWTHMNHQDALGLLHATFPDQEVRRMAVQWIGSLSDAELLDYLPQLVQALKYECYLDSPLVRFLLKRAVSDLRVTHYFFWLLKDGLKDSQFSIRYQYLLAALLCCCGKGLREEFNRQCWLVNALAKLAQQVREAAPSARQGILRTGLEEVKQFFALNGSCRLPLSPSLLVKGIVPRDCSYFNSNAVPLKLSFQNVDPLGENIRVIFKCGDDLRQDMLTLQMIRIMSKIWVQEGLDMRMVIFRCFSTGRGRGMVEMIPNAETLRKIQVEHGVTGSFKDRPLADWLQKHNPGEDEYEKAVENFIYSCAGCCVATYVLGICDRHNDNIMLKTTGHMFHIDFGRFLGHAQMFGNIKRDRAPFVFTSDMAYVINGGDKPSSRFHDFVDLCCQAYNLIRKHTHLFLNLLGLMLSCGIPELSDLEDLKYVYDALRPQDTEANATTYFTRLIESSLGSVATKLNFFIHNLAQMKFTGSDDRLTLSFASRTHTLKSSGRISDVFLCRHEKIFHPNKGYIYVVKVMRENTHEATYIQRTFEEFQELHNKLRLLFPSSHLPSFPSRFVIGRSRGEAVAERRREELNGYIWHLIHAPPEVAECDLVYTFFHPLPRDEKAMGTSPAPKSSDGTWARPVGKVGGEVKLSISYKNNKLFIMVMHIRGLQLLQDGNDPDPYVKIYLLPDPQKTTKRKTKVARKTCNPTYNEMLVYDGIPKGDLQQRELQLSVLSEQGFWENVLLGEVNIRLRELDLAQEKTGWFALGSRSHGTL
Chain of Tyrosine-protein kinase JAK2 (Homo sapiens), O60674 [V617F] (O60674 whole entry V617F, the tested form may be a part): as the sequence (O60674 whole entry, the tested form may be a part) above, with V617F counted along it

Regarding `Nc1nc(Cl)nc2c(Br)csc12`, the half-maximal inhibitory concentration (IC50) in the data set on L1210 [1] came out at 150 µM; with CCRF-CEM, 109 µM; in the data set with HeLa [2], 96 µM.
Turning to `Clc1nc(-n2cncn2)c2sccc2n1`, the 50% inhibitory concentration (IC50) with L1210 [1], in the data set with CCRF-CEM and in the data set on HeLa [2] was above 250 µM throughout.
In the case of `O=c1[nH]c(=O)c2scc(Br)c2[nH]1`, the concentration for half-maximal inhibition (IC50) in the data set on L1210 [1], with CCRF-CEM and in the data set on HeLa [2] was above 250 µM each time.
For the compound `O=c1[nH]c(=O)c2scc([C@H]3C[C@H](O)[C@@H](CO)O3)c2[nH]1`, the IC50 in the data set with L1210 [1], in the data set on CCRF-CEM and in the data set with HeLa [2] was above 250 µM throughout.
For the compound `COc1nc(OC)c2scc([C@H]3C[C@H](OC(C)=O)[C@@H](COC(C)=O)O3)c2n1`, the IC50 in the data set with L1210 [1], with CCRF-CEM and in the data set with HeLa [2] was above 250 µM each time.
As to `Clc1nc(Cl)c2sccc2n1`, the inhibition in data set [3], in data set [4], in data set [9], in [10], in data set [14] and in data set [15] was below 40% in each case. The inhibition in [16], in [17], in [20], in [21], in data set [22] and in [23] was below 40% each time. Besides, the inhibition in data set [24], in data set [25], in data set [26], in [27], in data set [28] and in [29] was below 40% in each case. For the same compound, the inhibition in data set [30] and in data set [31] was below 40% each time. Further, the outcome in the data set with L1210 [5] was inactive. Also, the inhibition entry in the data set on Escherichia coli, with Staphylococcus aureus, with Enterococcus faecalis and in the data set with Pseudomonas aeruginosa was “inactive” each time. Besides, the inhibition at 100 µM in the data set on Bacillus spizizenii was found to be 43%. Further, the MIC95 amounted to 23.4 µM (≈ 4.8 µg/mL) with Candida albicans, 16.6 µM (≈ 3.4 µg/mL) in the data set on Cryptococcus neoformans [6] and 34.6 µM (≈ 7.1 µg/mL) with Cryptococcus neoformans [7]. In addition, the Activity in the data set with L1210 [8] stood at 56%; in the data set on L1210 [11], 37.9%; in the data set on L1210 [12] it was 1.29%; in the data set with L1210 [13] it was 4.72%. For the same compound, the concentration for half-maximal inhibition (IC50) turned out to be 0.67 µM in the data set with L1210 [1], 5.2 µM in the data set with CCRF-CEM, 3.9 µM in the data set with HeLa [2] and 0.32 µM in the data set with L1210 [19]. The MIC99 with HEL is 100 µM (≈ 20.5 µg/mL); in the data set with Vero, 20 µM (≈ 4.1 µg/mL); with HeLa [18], 4 µM (≈ 0.82 µg/mL).
In the case of `COc1nc(OC)c2scc([C@H]3C[C@H](O)[C@@H](CO)O3)c2n1`, the IC50 in the data set with L1210 [1], with CCRF-CEM and in the data set with HeLa [2] was above 250 µM throughout.
Regarding `O=c1[nH]cc(F)c(=O)[nH]1` [FLUOROURACIL], the concentration for half-maximal inhibition (IC50) in the data set on L1210 [1] was 0.33 µM.
